A word on the IC50: it is the midpoint of a concentration-inhibition curve.

The experiment addresses T1, human IBAT (Homo sapiens, UniProt Q12908).
T1 construct: expressed in transfected cells; host or cells: Baby hamster kidney (BHK) cells, clone H14
T1 sequence (Q12908 1-348): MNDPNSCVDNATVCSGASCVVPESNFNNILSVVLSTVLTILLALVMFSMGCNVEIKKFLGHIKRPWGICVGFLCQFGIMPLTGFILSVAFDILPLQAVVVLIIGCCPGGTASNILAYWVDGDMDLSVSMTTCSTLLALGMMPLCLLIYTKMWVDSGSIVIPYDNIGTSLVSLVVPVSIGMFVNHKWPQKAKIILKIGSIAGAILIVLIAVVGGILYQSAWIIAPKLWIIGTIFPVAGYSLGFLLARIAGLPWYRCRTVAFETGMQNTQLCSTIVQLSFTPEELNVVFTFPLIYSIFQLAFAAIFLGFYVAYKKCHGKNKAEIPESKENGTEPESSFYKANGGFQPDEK
In words: In vitro assay of IBAT-mediated uptake of [14C]-taurocholate (TC) in H14 cells. It is filed as cell-based. To be noted: read-out: Human TC IC50. The method in brief:
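BHK cells stably expressing human IBAT (H14) were incubated 2 h at 37° C with compound and 3 μM final [14C]-taurocholate in DMEM (4.5 g/L glucose) plus 0.2% fatty acid-free BSA. After cold PBS washes, cell-associated radioactivity was measured by scintillation counting.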
As for `CCCCC1(CCCC)CS(=O)(=O)c2ccc(N(C)C)cc2C(c2cccc(OCCOCCOCC[N+]3(C)CCN(P(C)(=O)c4ccccc4)CC3)c2)C1O` (stereo not drawn) [Example 1050], the half-maximal inhibitory concentration (IC50) is 3 nM.

For `CCCCC1(CCCC)CS(=O)(=O)c2ccc(N(C)C)cc2C(c2ccc(OCc3cc[n+](C)cc3)c(F)c2)C1O` (stereo not drawn) [Example 1051], the IC50 is 3 nM.

In the case of `CCCCC1(CCCC)CS(=O)(=O)c2ccc(N(C)C)cc2C(c2cccc(OCCOCCOCC[n+]3cc4ccccc4cc3C)c2)C1O` (stereo not drawn) [Example 1052], the IC50 stood at 3 nM.

As for `CCCCC1(CCCC)CS(=O)(=O)c2ccc(N(C)C)cc2C(c2ccc(OCCC[n+]3ccc(N(C)C)cc3)c(F)c2)C1O` (stereo not drawn) [Example 1053], the IC50 was found to be 3 nM.

With `CCCCC1(CCCC)CS(=O)(=O)c2ccc(N(C)C)cc2C(c2cccc(OCCOCCOCC[n+]3ccc4ccccc4c3)c2)C1O` (stereo not drawn) [Example 1054], the IC50 is 3 nM.

Regarding `CCCCC1(CCCC)CS(=O)(=O)c2ccc(N(C)C)cc2C(c2ccc(OCCOCCOCC[N+]3(C)CCCN(C)CCN(C)CCCN(C)CC3)cc2)C1O` (stereo not drawn) [Example 1055], the IC50 is 3 nM.

Regarding `CCCCC1(CCCC)CS(=O)(=O)c2ccc(N(C)C)cc2C(c2cccc(OCCOCCOCC[n+]3ccc4c(c3)CCCCC4)c2)C1O` (stereo not drawn) [Example 1056], the IC50 turned out to be 3 nM.

With `CCCCC1(CCCC)CS(=O)(=O)c2ccc(N(C)C)cc2C(c2cccc(OCCOCCOCC[n+]3ccncc3)c2)C1O` (stereo not drawn) [Example 1057], the IC50 stood at 3 nM.

In the case of `CCCCC1(CCCC)CS(=O)(=O)c2ccc(N(C)C)cc2C(c2cccc(OCCOCCOCC[N+](CC)(CC)CCN(C)C(=O)c3ccccc3)c2)C1O` (stereo not drawn) [Example 1058], the IC50 amounted to 3 nM.

On to `CCCCC1(CCCC)CS(=O)(=O)c2ccc(N(C)C)cc2C(c2ccc(OCCOCC[N+]3(CC)CCCCC3)c(F)c2)C1O` (stereo not drawn) [Example 1059], for which the IC50 was found to be 3 nM.

In the case of `CCCCC1(CC)CS(=O)(=O)c2ccc(NC)cc2C(c2ccc(OC)c(F)c2)C1O` (stereo not drawn) [Example 1060], the IC50 was 3.6 nM.

With `CCCCC1(CCCC)CS(=O)(=O)c2ccc(NC)cc2C(c2cccc(OCCOCCOCC[n+]3cc4ccccc4cn3)c2)C1O` (stereo not drawn) [Example 1061], the IC50 was found to be 4 nM.

In the case of `CCCCC1(CCCC)CS(=O)(=O)c2ccc(NC)cc2C(c2cccc(OCCOCCOCC[N+](C)(C)CCN(C)S(=O)(=O)c3ccccc3)c2)C1O` (stereo not drawn) [Example 1062], the IC50 was 4 nM.

Turning to `C=COCC[N+](CC)(CC)CCOCCOCCOc1cccc(C2c3cc(NC)ccc3S(=O)(=O)CC(CCCC)(CCCC)C2O)c1` (stereo not drawn) [Example 1063], the IC50 amounted to 4 nM.

For `CCCCC1(CCCC)CS(=O)(=O)c2ccc(NC)cc2C(c2cccc(OCCOCCOCC[n+]3ccccc3CCN3CCCCC3)c2)C1O` (stereo not drawn) [Example 1064], the IC50 was 4 nM.

In the case of `CCCCC1(CCCC)CS(=O)(=O)c2ccc(N(C)C)cc2C(c2cccc(OCCOCCOCC[N+](CCOCCOC)(CCOCCOC)CCOCCOC)c2)C1O` (stereo not drawn) [Example 1065], the IC50 turned out to be 4 nM.

For the molecule `CCCCC1(CCCC)CS(=O)(=O)c2ccc(N(C)C)cc2C(c2cccc(OCCOCCOCC[n+]3cc4ccccc4c4ccccc43)c2)C1O` (stereo not drawn) [Example 1066], the IC50 stood at 4 nM.

With `CCCCC1(CCCC)CS(=O)(=O)c2ccc(N(C)C)cc2C(c2cccc(OCCOCCOCC[n+]3ccccc3)c2)C1O` (stereo not drawn) [Example 1068], the IC50 was found to be 4 nM.

On to `CCCCC1(CCCC)CS(=O)(=O)c2c(cc(N(C)C)cc2N(C)C)C(c2ccccc2)C1O` (stereo not drawn) [Example 1069], for which the IC50 amounted to 4 nM.

Regarding `CCCCC1(CCCC)CS(=O)(=O)c2ccc(N(C)C)cc2C(c2ccc(OCCOCC[n+]3ccn(CC)c3)c(F)c2)C1O` (stereo not drawn) [Example 1070], the IC50 worked out at 4 nM.

With `CCCCC1(CCCC)CS(=O)(=O)c2ccc(N(C)C)cc2C(c2cccc(OCCOCCOCC[N+](CC)(CC)CCN(C)P(C)(=O)c3ccccc3)c2)C1O` (stereo not drawn) [Example 1071], the IC50 stood at 4 nM.

Take `CCCCC1(CCCC)CS(=O)(=O)c2ccc(N(C)C)cc2C(c2cccc(OCCOCCOCC[n+]3ccc(CO)cc3)c2)C1O` (stereo not drawn) [Example 1072]: the IC50 amounted to 4 nM.

As for `CCCCC1(CCCC)CS(=O)(=O)c2ccc(N(C)C)cc2C(c2ccc(OCCOCC[N+]34CCN(CC3)CC4)c(F)c2)C1O` (stereo not drawn) [Example 1073], the IC50 amounted to 4 nM.

As for `CCCCC1(CC)CS(=O)(=O)c2ccc(N(C)C)cc2C(c2ccc(OC)c(F)c2)C1O` (stereo not drawn) [Example 1074], the IC50 worked out at 4 nM.

Take `CCCCC1(CCCC)CS(=O)(=O)c2c(cc(N(C)C)cc2N(C)C)C(c2ccc(F)cc2)C1O` (stereo not drawn) [Example 1075]: the IC50 worked out at 4.3 nM.

For the molecule `CCCCC1(CCCC)CS(=O)(=O)c2ccc(N(C)C)cc2C(c2ccc(OCCOCCOCC[N+](C)(C)C)cc2)C1O` (stereo not drawn) [Example 1076], the IC50 amounted to 4.5 nM.

As to `CCCCC1(CCCC)CS(=O)(=O)c2ccc(N(C)C)cc2C(c2cccc(CO)c2)C1O` (stereo not drawn) [Example 1077], the IC50 was found to be 4.5 nM.

As for `CCCCC1(CC)CS(=O)(=O)c2ccc(N(C)C)cc2C(c2cccc(OCCOCCOCC[N+](C)(C)CCCCCC[N+](C)(C)CCOCCOCCOc3cccc(C4c5cc(N(C)C)ccc5S(=O)(=O)CC(CC)(CCCC)C4O)c3)c2)C1O` (stereo not drawn) [Example 1079], the IC50 was 5 nM.

For the molecule `CCCCC1(CCCC)CS(=O)(=O)c2ccc(N(C)C)cc2C(c2cccc(OCCOCCOCC[N+](CC)(CC)CCN(C)S(=O)(=O)c3ccccc3)c2)C1O` (stereo not drawn) [Example 1080], the half-maximal inhibitory concentration (IC50) is 5 nM.

Take `CCCCC1(CCCC)CS(=O)(=O)c2ccc(N(C)C)cc2C(c2cccc(OCCOCCOCC[N+](CC)(CC)CC(C)=O)c2)C1O` (stereo not drawn) [Example 1081]: the IC50 turned out to be 5 nM.

Consider `CCCCC1(CCCC)CS(=O)(=O)c2ccc(N(C)C)cc2C(c2ccccn2)C1O` (stereo not drawn) [Example 1082], for which the IC50 turned out to be 5 nM.

In the case of `CCCCC1(CCCC)CS(=O)(=O)c2ccc(N(C)C)cc2C(c2cccc(OCCOCCOCC[n+]3ccccc3C)c2)C1O` (stereo not drawn) [Example 1083], the IC50 amounted to 5 nM.

On to `CCCCC1(CCCC)CS(=O)(=O)c2ccc(N(C)C)cc2C(c2cccc(OCCOCCOCC[n+]3ccc(CC)cc3)c2)C1O` (stereo not drawn) [Example 1084], for which the IC50 was 5 nM.

`CCCCC1(CCCC)CS(=O)(=O)c2ccc(N(C)C)cc2C(c2ccsc2)C1O` (stereo not drawn) [Example 1085]: the IC50 came to 5 nM.

`CCCCC1(CCCC)CS(=O)(=O)c2ccc(N(C)C)cc2C(c2cccc(OCCOCCOCC[N+](C)(C)CCN(CC)C(=O)c3ccccc3)c2)C1O` (stereo not drawn) [Example 1086]: the IC50 was 5 nM.

Turning to `CCCCC1(CCCC)CS(=O)(=O)c2ccc(N(C)C)cc2C(c2cccc(OCC[N+](CC)(CC)CC)c2)C1O` (stereo not drawn) [Example 1087], the IC50 turned out to be 5 nM.

For `CCCCC1(CC)CS(=O)(=O)c2ccc(N(C)C)cc2C(c2ccc3c(c2)OCO3)C1O` (stereo not drawn) [Example 1088], the IC50 was 5.5 nM.

As to `CCCCC1(CC)CS(=O)(=O)c2ccc(N(C)C)cc2C(c2ccc(OC)cc2)C1O` (stereo not drawn) [Example 1089], the IC50 is 5.7 nM.

Regarding `CCCCC1(CCCC)CS(=O)(=O)c2ccc(N(C)C)cc2C(c2cccc(OCCOCCOCC[n+]3cccc4ccccc43)c2)C1O` (stereo not drawn) [Example 1090], the IC50 amounted to 6 nM.

As to `CCCCC1(CCCC)CS(=O)(=O)c2ccc(N(C)C)cc2C(c2cccc(OCCOCCOCC[N+](C)(C3CCCCC3)C3CCCCC3)c2)C1O` (stereo not drawn) [Example 1091], the IC50 was 6 nM.

On to `CCCCC1(CCCC)CS(=O)(=O)c2ccc(N(C)C)cc2C(c2cccc(OCCOCCOCC[N+](C)(C)c3ccccc3)c2)C1O` (stereo not drawn) [Example 1092], for which the 50% inhibitory concentration (IC50) was determined as 6 nM.

Regarding `CCCCC1(CCCC)CS(=O)(=O)c2ccc(N(C)C)cc2C(c2cccc(OCCOCCOCC[N+](C)(C)CC(=O)OCC)c2)C1O` (stereo not drawn) [Example 1093], the IC50 was 6 nM.

In the case of `CCCCC1(CCCC)CS(=O)(=O)c2ccc(N(C)C)cc2C(c2cccc(OCCOCCOCC[n+]3cccc(C(=O)OC)c3)c2)C1O` (stereo not drawn) [Example 1094], the IC50 was 6 nM.

Take `CCCCC1(CCCC)CS(=O)(=O)c2ccc(N(C)C)cc2C(c2cccc(OCCOCCOCC[N+]34CCN(CC3)CC4)c2)C1O` (stereo not drawn) [Example 1095]: the IC50 worked out at 6 nM.

In the case of `CCCCC1(CCCC)CS(=O)(=O)c2ccc(N(C)C)cc2C(c2cccc(OCCOCCOCC[n+]3ccc(C)cc3)c2)C1O` (stereo not drawn) [Example 1096], the IC50 is 6 nM.

As for `CCCCC1(CCCC)CS(=O)(=O)c2ccc(N(C)C)cc2C(c2cccc(NC(=O)CCBr)c2)C1O` (stereo not drawn) [Example 1097], the IC50 amounted to 6 nM.

`CCCCC1(CC)CS(=O)(=O)c2ccc(N(C)C)cc2C(c2ccc(OC)cc2)C1O` (stereo not drawn) [Example 1099]: the IC50 is 6.3 nM.

Take `CCCCC1(CCCC)CS(=O)(=O)c2ccc(N(C)C)cc2C(c2ccc(OC)cc2)C1O` (stereo not drawn) [Example 1100]: the IC50 was determined as 6.8 nM.

For the molecule `CCCCC1(CCCC)CS(=O)(=O)c2ccc(N(C)C)cc2C(c2ccc(OCCOCC[n+]3ccc(N(C)C)cc3)c(F)c2)C1O` (stereo not drawn) [Example 1101], the IC50 came out at 7 nM.

In the case of `CCCCC1(CCCC)CS(=O)(=O)c2ccc(N(C)C)cc2C(c2ccc(OCCOCCOCC[N+](C)(C)CC[N+](C)(C)C)cc2)C1O` (stereo not drawn) [Example 1103], the IC50 was determined as 7 nM.

`CCCCC1(CCCC)CS(=O)(=O)c2ccc(N(C)C)cc2C(c2cccc(OCCOCCOCC[N+]3=C4CCCCCN4CCC3)c2)C1O` (stereo not drawn) [Example 1104]: the IC50 came out at 7 nM.

Regarding `CCCCC1(CCCC)CS(=O)(=O)c2ccc(N(C)C)cc2C(c2cccc(O)c2)C1O` (stereo not drawn) [Example 1106], the IC50 was found to be 7.3 nM.

On to `CCCCC1(CCCC)CS(=O)(=O)c2ccc(N(C)C)cc2C(c2cccc(C[n+]3ccccc3)c2)C1O` (stereo not drawn) [Example 1107], for which the IC50 came out at 7.5 nM.

On to `CCCCC1(CCCC)CS(=O)(=O)c2ccc(N(C)C)cc2C(c2cccnc2)C1O` (stereo not drawn) [Example 1108], for which the IC50 turned out to be 7.5 nM.

Values taken from patent US6784201B2, “Benzothiepines having activity as inhibitors of ileal bile acid transport and taurocholate uptake” (G.D. Searle & Company, priority 1994, dated 2004).
